Consider four molecules from US12643906B2, “Fused aza-heterocyclic amide compound and use thereof” (CSPC ZHONGQI PHARMACEUTICAL TECHNOLOGY (SHIJIAZHUANG) CO., …, priority 2020, dated 2026).

SMILES strings stand for the structures. pIC50: −log10 of the molar value. Read-outs that look alike come from different tables or passages of the source.

For data set [1], the target named is T1, ROS1 (Homo sapiens, UniProt P08922).
T1 construct: purchased Carna 08-163
In words: Kinase inhibition assay with fluorescein labeled peptide, ROS1. The data set is classed as biochemical. As to the method:
(§1) Compounds were diluted to a certain concentration in DMSO with 4-fold gradients. The compound with a certain concentration, an enzyme solution and DMSO were added into a 384-well plate, and the plate was incubated at room temperature for 10 min. […] The plate was subjected to reading.

Data set [2] has as its target T2, Ba/F3 LMNA-NTRK1-G667C (Homo sapiens, UniProt P04629, G667C, cells depend on it).
T2 construct: fused on or other part: P02545 (Prelamin-A/C)
Briefly: In vitro cell proliferation inhibition (MTT). The data set is classed as cell-based, murine. To be noted: 72 h, read-out: IC50 Ba/F3 LMNA-NTRK1-G667C. As to the method: (§2) Cells in the logarithmic growth phase were harvested and counted using a […]. The cell suspension with a certain density was pipetted uniformly and seeded into a 96-well plate with each well of 100 μL, and shaken to make the cells uniformly disperse into the wells. 100 μL of compound solution with certain concentration gradient was added into each well, and 3 duplicate wells were set for each concentration. The plate was cultured in a CO2 incubator at 37° C. for 72 h. 20 μL of MTT working solution (5 mg/mL) was added into each well, and the plate was placed at 37° C. for 4 h, and centrifuged at 1000 rpm for 5 min by a plate centrifuge. After 180 μL of culture medium was discarded, the plate was added with 150 μL of DMSO, and mixed well with a microplate shaker, the plate bottom was wiped, and optical density (OD) at 550 nm was detected with a microplate reader.

In data set [3] the target is T3, Ba/F3 LMNA-NTRK1 (Homo sapiens, UniProt P04629).
T3 construct: fused on or other part: P02545 (Prelamin-A/C)
Briefly: In vitro cell proliferation inhibition (MTT). The data set is classed as cell-based, murine. The settings on record: 72 h, read-out: IC50 Ba/F3 LMNA-NTRK1. As to the method:
as §2

Data set [4] deals with T4, Ba/F3 ETV6-NTRK2 (Homo sapiens, UniProt Q16620).
T4 construct: fused on or other part: P41212 (Transcription factor ETV6)
In words: In vitro cell proliferation inhibition (MTT). Format: cell-based, murine. The settings on record: 72 h, read-out: IC50 Ba/F3 ETV6-NTRK2. How it is done:
as §2

For data set [5], the target named is T5, Ba/F3 LMNA-NTRK1-G595R (Homo sapiens, UniProt P04629, G595R, cells depend on it).
T5 construct: fused on or other part: P02545 (Prelamin-A/C)
In words: In vitro cell proliferation inhibition (MTT). Format: cell-based, murine. The settings on record: 72 h, read-out: IC50 Ba/F3 LMNA-NTRK1-G595R. As to the method: as §2

Data set [6] addresses T6, Ba/F3 ETV6-NTRK3-G623R (Homo sapiens, UniProt Q16288, G623R, cells depend on it).
T6 construct: fused on or other part: P41212 (Transcription factor ETV6)
In words: In vitro cell proliferation inhibition (MTT). Format: cell-based, murine. To be noted: 72 h, read-out: IC50 Ba/F3 ETV6-NTRK3-G623R. As to the method:
as §2

Data set [7] deals with T7, TRKB (Homo sapiens, UniProt Q16620).
T7 construct: purchased Bioduro
Briefly: HTRF kinase inhibition assay, TRKB. The data set is classed as biochemical. How it is done: (§3) The compound to be tested with a certain concentration gradient and an enzyme solution were successively added into a plate (kinase buffer (1× kinase buffer (Cisbio, Cat #62EZBFDD), pH 7.5; 5 mM MgCl2, 1 mM DTT) was added into negative control wells), and the compound plate was centrifuged at 1000 rpm for 30 seconds. The plate was sealed and incubated in a Constant Temperature Incubator at 25° C. for 30 min. A substrate solution containing TK-Sub-biotin (Cisbio, Cat #61TKOBL) and ATP (Sigma, Cat #R0441) was prepared, the substrate solution was added into a 384-well plate, and the plate was centrifuged at 1000 rpm for 30 seconds. The plate was sealed and incubated in a Constant Temperature Incubator at 25° C. for 60 min.
(§4) TK antibody and XL665 were diluted, mixed and added into the assay plate, and the plate was centrifuged at 1000 rpm for 30 seconds. The plate was sealed and incubated in a Constant Temperature incubator Incubator at 25° C. for 60 min. The assay plate was placed on an Envision reader for reading.
(§5) Data were fitted in XLFit excel add-in version 5.4.0.8 to obtain IC50 values.
On the technique in general: TR-FRET usually uses a lanthanide donor and a delayed reading to cut background.

The target in data set [8] is T8, TRKC(G696A) (Homo sapiens, UniProt Q16288, G696A).
T8 construct: purchased Bioduro
Briefly: HTRF kinase inhibition assay, TRKC(G696A). Format: biochemical. How it is done:
as §3, §4, §5

Data set [9] has as its target T9, TRKC(G623R) (Homo sapiens, UniProt Q16288, G623R).
T9 construct: purchased Bioduro
Briefly: HTRF kinase inhibition assay, TRKC(G623R). The data set is classed as biochemical. How it is done:
as §3
(§6) TK antibody and XL665 were diluted, mixed and added into the assay plate, and the plate was centrifuged at 1000 rpm for 30 seconds. The plate was sealed and incubated in a Constant Temperature incubator Incubator at 25° C. for 60 min. The assay plate was placed on an Envision reader for reading. (HTRF 665/615 ratio: signal value at 665 nm/signal value at 615 nm) Inhibition=(rationegative control well−ratiocompound well)/(rationegative control well−ratioenzyme-free control well)×100% 1.3 Data Analysis and Curve Fitting
as §5

In data set [10] the target is T10, TRKC (Homo sapiens, UniProt Q16288).
T10 construct: purchased Bioduro
In words: HTRF kinase inhibition assay, TRKC. Format: biochemical. How it is done:
as §3, §6, §5

In data set [11] the target is T11, TRKA(G667C) (Homo sapiens, UniProt P04629, G667C).
T11 construct: purchased signalchem
Briefly: HTRF kinase inhibition assay, TRKA(G667C). Format: biochemical. How it is done: as §3, §6, §5

The test system of data set [12] is Ba/F3 LMNA-NTRK1-G595R model. The settings on record: gavage. As to the method: (§7) The cells in the logarithmic growth phase were collected and re-suspending in serum-free culture medium to make the cell concentration at […] cells/mL. The cell suspension was added with equal volume of Matrigel to make the final cell concentration at 3×10^7-5×10^7 cells/mL. The animal model was established by subcutaneously inoculating 0.1 mL of tumor cell suspension in the axilla of the forelimb of NuNu mice (female, 4-6 weeks, Beijing Vital River Laboratory Animal Technology Co., Ltd.) in an amount of 3×10^6-5×10^6 cells/mouse.
(§8) The maximum and the minimum tumor diameters of the xenografts in nude mice were measured using a vernier caliper, and the tumor volume (TV) was calculated according to the formula: V=½×a×b^2, where a and b represent the maximum and minimum diameters of the tumor mass, respectively. Nude mice with appropriate tumor volume were selected and the mice were evenly divided into 7 groups of 6 mice (100-200 mm^3) by tumor volume using a random number method.
(§9) Tumor diameters were measured twice weekly and tumor volume was calculated. […] (where Ti represents the mean tumor volume of a certain administration group on a certain day; TO represents the mean tumor volume of the administration group at the start of administration, Vi represents the mean tumor volume of the vehicle control group on a certain day (same day as Ti) and V0 represents the mean tumor volume of the vehicle control group at the start of administration); • Tumor inhibition rate: at the end of the test, the animals were executed by removing the cervical vertebrae.

Data set [13] has as its system Ba/F3 LMNA-NTRK1-G667C model. To be noted: 100 mg/kg, gavage. As to the method: as §7, §8, §9
In data set [14] the target is T12, Ba/F3 ETV6-NTRK3-G696A (Homo sapiens, UniProt Q16288, G696A, cells depend on it).
T12 construct: fused on or other part: P41212 (Transcription factor ETV6)
Briefly: In vitro cell proliferation inhibition (MTT). The data set is classed as cell-based, murine. To be noted: 72 h, read-out: IC50 Ba/F3 ETV6-NTRK3-G696A. As to the method:
• Source of 6 kinds of cell lines for the test: KYinno Biotechnology (Beijing) Co., Ltd. • Cell type: murine B cells • Culture medium: RPMI-1640+10% FB S 2. Test Method
as §2

Data set [15] has as its target T13, TRKA (Homo sapiens, UniProt P04629).
T13 construct: purchased Bioduro
Briefly: HTRF kinase inhibition assay, TRKA. Format: biochemical. How it is done: as §3, §6, §5

Data set [16] concerns the target T14, ALK (Homo sapiens, UniProt Q9UM73).
T14 construct: purchased Carna 08-105
Briefly: Kinase inhibition assay with fluorescein labeled peptide, ALK. Format: biochemical. How it is done: as §1

The target of data set [17] is T15, TRKA(G595R) (Homo sapiens, UniProt P04629, G595R).
T15 construct: purchased signalchem
Briefly: HTRF kinase inhibition assay, TRKA(G595R). The data set is classed as biochemical. As to the method: as §3, §6, §5

The subject of data set [18] is tropomyosin receptor kinase. To be noted: 46 evaluable patients, phase I and phase II clinical trials; cited from earlier work.

The pIC50 is the IC50 on a negative log10 scale, so that one unit is a factor of ten. The low end stands for a large IC50, the high end for a small IC50. With `O=C(Nc1ccc(C2CCN(C(=O)CO)CC2)cc1)c1cnn2ccc(N3C[C@@H](F)C[C@@H]3c3cc(F)ccc3F)nc12` [Compound 10, 5-((2R,4S)-2-(2,5-difluorophenyl)-4-fluoropyrrolidin-1-yl)-N-(4-(1-(2-hydroxyacetyl)piperidin-4-yl)phenyl)pyrazolo[1,5-a]pyrimidine-3-carboxamide], the pIC50 is 9.40 in data set [1]; 8.94 in data set [7]; 9.25 in data set [8]; 9.09 in data set [9]; 8.98 in data set [10]; 9.24 in data set [11]. The pIC50 was 9.49 in data set [15], 7.51 in data set [16] and > 9.77 in [17]. For the same molecule, the GI50 in data set [2] turned out to be 0.536 nM; in [3], 0.526 nM; in [4], 0.977 nM; in data set [5], 0.095 nM; in [6] it was 0.277 nM; in [14] it was 0.693 nM. Moreover, the “Number of animals (Survival/total)” value in data set [12] (50 mg/kg), in data set [12] (100 mg/kg) and in [13] was “(6/6)” throughout. The “Rate of weight gain (%)” value in data set [12] (50 mg/kg) is 13.47%; in data set [12] (100 mg/kg) it was 4.36%; in [13], 5.75%. The “TGI (%)” value in [12] (50 mg/kg) turned out to be 134.7%; in data set [12] (100 mg/kg), 132.5%; in [13], 111.6%. Also, the “Tumor volume (mm^3)” value in data set [12] (50 mg/kg) amounted to 20.0 ± 12.6 mm^3; in data set [12] (100 mg/kg) it was 25.8 ± 8.3 mm^3; in data set [13] it was 91.6 ± 19.5 mm^3. Moreover, the “Tumor weight” value is 0.01 ± 0.01 g in [12] (50 mg/kg), 0.02 ± 0.01 g in [12] (100 mg/kg) and 0.12 ± 0.02 g in [13]. The “Tumor weight inhibition rate (%)” value in [12] (50 mg/kg) was found to be 98.09%; in data set [12] (100 mg/kg), 96.75%; in data set [13], 77.80%.
For the molecule `O=C(Nc1ccc(NC2COC2)cc1)c1cnn2ccc(N3C[C@@H](F)C[C@@H]3c3cc(F)ccc3F)nc12` [Compound 19, 5-((2R,4S)-2-(2,5-difluorophenyl)-4-fluoropyrrolidin-1-yl)-N-(4-(oxetan-3-ylamino)phenyl)pyrazolo[1,5-a]pyrimidine-3-carboxamide], the pIC50 in [1] was 9.64; in [7], 9.01; in data set [8] it was 9.03; in [9] it was 9.62; in data set [10], 9.14; in data set [11], 9.51. The pIC50 in data set [15] was 9.58; in data set [16] it was 7.41; in data set [17] it was > 9.77. The GI50 in data set [2] came to 1.19 nM; in data set [3], 0.416 nM; in data set [4], 0.866 nM; in data set [5], 0.208 nM; in data set [6], 0.426 nM; in [14], 0.321 nM.
Take `O=C(Nc1ccc(N2CC[C@H](O)C2)cc1)c1cnn2ccc(N3C[C@@H](F)C[C@@H]3c3cc(F)ccc3F)nc12` [Compound 21]: the negative logarithm of the IC50 (pIC50) in data set [1] is 9.48; in data set [7], 8.81; in [8], 8.92; in data set [9], 9.13; in [10] it was 9.05; in data set [11], 9.20. The negative-log IC50 (pIC50) in data set [15] was 9.39; in data set [16], 7.52; in data set [17] it was > 9.77. In addition, the GI50 in [2] was found to be 0.584 nM.
With `O=C(Nc1cnn2ccc(N3CCC[C@@H]3c3cc(F)ccc3F)nc12)N1CC[C@H](O)C1` [LOXO-101, Larotrectinib], the results for the GI50 in [4], in data set [6] and in [14] were 15.1 nM, 376 nM and 35.8 nM, respectively. Further, the “Overall Response Rate (ORR)” value in [18] is recorded as 78%. The pIC50 in data set [16] is < 6.00.
